Experimental findings from ChEMBL document CHEMBL5465560, “Selectivity Literature for EUbOPEN Chemogenomic Library” (2024) are described below.

Test [1] deals with T1, Phosphatidylinositol 5-phosphate 4-kinase type-2 alpha (Homo sapiens) (UniProt P48426).
T1 sequence (whole entry): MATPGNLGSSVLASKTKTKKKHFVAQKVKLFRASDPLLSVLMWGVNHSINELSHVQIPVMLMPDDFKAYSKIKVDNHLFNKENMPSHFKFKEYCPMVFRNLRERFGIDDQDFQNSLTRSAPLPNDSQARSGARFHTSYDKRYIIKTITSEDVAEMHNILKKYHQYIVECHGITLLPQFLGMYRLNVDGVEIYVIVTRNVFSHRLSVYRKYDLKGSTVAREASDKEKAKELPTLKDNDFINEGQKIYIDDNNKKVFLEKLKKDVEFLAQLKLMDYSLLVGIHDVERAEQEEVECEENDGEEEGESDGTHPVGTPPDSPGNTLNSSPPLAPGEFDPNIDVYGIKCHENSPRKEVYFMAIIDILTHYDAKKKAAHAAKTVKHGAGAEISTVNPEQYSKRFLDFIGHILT
Briefly: Selectivity interaction (ActivX KiNativ screen (ex vivo kinase selectivity in human PBMCs)) EUB0001619a PIP4K2A. Type of test: cell-based. To be noted: PBMC, at 1 µM.

The target in test [2] is T2, Tyrosine-protein kinase ITK/TSK (Homo sapiens) (UniProt Q08881).
T2 sequence (whole entry): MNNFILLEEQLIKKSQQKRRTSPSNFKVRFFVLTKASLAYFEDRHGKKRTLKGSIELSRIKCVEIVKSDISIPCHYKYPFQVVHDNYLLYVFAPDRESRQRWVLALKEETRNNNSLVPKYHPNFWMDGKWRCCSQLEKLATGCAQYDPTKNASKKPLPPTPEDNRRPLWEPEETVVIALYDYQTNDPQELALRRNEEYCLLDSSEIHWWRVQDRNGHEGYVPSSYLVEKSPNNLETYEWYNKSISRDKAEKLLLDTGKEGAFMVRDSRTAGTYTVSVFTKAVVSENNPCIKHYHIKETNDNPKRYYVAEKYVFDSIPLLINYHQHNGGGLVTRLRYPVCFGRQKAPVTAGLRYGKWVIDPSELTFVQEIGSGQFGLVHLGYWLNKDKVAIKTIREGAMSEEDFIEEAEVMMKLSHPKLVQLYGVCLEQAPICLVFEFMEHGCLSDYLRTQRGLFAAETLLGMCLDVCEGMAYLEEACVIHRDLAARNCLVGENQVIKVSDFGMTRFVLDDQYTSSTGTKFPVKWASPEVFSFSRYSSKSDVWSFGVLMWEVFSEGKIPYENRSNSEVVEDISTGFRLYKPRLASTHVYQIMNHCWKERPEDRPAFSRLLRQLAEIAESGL
The experiment in a line: Selectivity interaction (KinomeScan (DiscoverX)) EUB0000666a ITK. To be noted: at 10 µM.

The target of test [3] is T3, Serine/threonine-protein kinase NLK (Homo sapiens) (UniProt Q9UBE8).
T3 sequence (whole entry): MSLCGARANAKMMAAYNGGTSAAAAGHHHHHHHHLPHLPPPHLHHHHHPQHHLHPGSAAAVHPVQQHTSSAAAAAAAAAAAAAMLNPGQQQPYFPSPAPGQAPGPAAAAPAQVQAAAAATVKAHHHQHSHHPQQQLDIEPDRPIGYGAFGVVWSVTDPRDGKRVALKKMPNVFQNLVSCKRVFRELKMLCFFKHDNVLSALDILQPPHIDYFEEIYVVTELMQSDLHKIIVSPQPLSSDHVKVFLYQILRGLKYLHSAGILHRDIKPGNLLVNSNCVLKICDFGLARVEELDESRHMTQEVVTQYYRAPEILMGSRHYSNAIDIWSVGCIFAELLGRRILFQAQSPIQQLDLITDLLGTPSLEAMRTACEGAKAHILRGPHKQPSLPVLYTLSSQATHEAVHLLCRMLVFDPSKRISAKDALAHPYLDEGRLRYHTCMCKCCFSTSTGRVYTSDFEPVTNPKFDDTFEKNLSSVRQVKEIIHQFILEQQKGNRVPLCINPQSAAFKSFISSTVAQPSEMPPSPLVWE
Briefly: Selectivity interaction (Kinase panel (Invitrogen)) EUB0000639a NLK. To be noted: at 200 nM.

For test [4], the target named is Phosphatidylinositol 4-kinase alpha (Homo sapiens, UniProt P42356). The experiment in a line: Selectivity interaction (Kinase panel (Invitrogen)) EUB0000639a PI4KA. To be noted: at 200 nM.
Sequence of Phosphatidylinositol 4-kinase alpha (P42356 whole entry, looked up): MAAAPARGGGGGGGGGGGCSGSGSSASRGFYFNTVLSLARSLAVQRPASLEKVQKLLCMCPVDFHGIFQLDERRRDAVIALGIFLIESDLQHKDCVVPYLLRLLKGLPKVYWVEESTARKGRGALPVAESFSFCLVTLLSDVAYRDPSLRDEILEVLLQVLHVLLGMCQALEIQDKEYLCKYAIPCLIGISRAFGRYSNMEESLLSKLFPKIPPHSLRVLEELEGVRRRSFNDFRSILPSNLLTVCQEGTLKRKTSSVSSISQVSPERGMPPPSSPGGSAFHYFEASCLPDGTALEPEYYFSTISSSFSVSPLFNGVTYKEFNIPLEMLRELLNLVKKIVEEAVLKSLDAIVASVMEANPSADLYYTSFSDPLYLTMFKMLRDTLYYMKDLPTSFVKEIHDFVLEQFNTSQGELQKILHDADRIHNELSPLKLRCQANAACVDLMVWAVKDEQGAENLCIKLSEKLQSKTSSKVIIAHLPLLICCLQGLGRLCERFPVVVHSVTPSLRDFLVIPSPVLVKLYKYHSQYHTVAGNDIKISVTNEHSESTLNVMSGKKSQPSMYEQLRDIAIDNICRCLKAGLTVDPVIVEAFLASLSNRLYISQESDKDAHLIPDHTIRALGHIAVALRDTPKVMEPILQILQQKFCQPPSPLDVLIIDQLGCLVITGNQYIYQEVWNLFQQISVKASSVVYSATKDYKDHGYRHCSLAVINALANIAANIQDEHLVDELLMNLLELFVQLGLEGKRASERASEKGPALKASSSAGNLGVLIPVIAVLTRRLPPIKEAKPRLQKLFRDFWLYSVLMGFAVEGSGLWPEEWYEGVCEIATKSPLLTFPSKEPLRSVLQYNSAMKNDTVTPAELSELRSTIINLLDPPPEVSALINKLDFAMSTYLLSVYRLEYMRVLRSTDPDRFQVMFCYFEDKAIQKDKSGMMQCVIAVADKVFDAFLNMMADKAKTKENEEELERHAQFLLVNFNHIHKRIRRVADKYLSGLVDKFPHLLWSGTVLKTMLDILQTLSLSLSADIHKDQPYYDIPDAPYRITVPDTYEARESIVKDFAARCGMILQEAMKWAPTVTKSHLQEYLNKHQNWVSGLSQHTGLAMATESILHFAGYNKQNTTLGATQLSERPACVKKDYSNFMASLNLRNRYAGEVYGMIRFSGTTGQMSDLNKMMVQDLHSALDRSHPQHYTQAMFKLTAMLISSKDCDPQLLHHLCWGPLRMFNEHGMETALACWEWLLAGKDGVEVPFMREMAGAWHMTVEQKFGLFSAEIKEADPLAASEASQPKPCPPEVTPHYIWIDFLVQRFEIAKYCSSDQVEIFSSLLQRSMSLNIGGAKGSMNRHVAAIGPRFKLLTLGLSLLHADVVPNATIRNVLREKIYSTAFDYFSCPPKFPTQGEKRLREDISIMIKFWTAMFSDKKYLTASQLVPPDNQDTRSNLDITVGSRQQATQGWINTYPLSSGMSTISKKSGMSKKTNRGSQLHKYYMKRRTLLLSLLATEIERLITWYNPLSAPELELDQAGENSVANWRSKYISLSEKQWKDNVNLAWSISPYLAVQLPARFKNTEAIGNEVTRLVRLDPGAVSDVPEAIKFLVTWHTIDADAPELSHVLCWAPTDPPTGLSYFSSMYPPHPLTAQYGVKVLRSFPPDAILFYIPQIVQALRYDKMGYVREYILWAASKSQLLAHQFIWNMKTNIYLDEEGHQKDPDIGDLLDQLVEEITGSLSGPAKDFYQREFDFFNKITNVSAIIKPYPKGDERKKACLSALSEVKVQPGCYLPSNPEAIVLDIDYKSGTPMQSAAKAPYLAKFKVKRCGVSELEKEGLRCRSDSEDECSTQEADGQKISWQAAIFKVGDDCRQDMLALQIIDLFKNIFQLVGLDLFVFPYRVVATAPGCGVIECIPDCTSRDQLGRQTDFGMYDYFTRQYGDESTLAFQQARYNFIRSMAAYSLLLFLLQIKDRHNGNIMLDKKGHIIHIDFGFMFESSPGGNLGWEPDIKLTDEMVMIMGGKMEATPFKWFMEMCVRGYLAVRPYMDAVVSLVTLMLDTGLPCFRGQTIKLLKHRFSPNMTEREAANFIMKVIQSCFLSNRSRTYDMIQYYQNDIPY
Test [5] addresses T4, Dual specificity mitogen-activated protein kinase kinase 5 (Homo sapiens) (UniProt Q13163).
T4 sequence (whole entry): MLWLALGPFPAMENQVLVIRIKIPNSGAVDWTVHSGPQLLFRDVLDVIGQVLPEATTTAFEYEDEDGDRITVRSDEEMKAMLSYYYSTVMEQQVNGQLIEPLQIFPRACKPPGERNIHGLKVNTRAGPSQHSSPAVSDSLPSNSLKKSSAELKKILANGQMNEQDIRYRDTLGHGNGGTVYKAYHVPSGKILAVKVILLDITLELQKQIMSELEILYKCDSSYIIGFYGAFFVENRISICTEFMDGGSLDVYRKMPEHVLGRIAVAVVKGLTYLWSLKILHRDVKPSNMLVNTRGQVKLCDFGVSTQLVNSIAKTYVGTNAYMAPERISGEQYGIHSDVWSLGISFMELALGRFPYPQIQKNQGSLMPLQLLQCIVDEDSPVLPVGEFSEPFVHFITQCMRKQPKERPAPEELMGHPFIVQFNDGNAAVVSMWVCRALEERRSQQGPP
The experiment in a line: Selectivity interaction (KinomeScan (DiscoverX)) EUB0000092b MAP2K5. To be noted: at 10 µM.

Test [6] addresses T5, Serine/threonine-protein kinase Nek5 (Homo sapiens) (UniProt Q6P3R8).
T5 sequence (whole entry): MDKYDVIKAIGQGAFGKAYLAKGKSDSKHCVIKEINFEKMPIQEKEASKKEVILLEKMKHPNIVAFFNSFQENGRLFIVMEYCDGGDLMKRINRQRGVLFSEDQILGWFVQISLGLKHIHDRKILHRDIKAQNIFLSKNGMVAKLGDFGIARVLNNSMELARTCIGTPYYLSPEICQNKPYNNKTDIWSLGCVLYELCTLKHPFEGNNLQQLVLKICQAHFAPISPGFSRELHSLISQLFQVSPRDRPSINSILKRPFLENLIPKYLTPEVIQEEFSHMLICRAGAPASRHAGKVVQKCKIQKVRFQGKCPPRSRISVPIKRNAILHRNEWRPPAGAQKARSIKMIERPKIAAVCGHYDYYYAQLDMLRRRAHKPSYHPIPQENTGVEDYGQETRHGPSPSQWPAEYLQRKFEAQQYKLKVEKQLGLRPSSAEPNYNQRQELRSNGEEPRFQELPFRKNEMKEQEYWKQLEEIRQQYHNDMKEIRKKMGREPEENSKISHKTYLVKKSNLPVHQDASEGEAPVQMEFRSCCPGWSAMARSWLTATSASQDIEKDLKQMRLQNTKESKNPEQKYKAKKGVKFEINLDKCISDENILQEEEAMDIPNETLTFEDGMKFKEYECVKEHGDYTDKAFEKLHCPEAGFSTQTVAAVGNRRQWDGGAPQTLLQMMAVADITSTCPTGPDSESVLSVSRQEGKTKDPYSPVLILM
The experiment in a line: Selectivity interaction (KinomeScan (DiscoverX)) EUB0000092b NEK5. To be noted: at 10 µM.

Each structure is given as a SMILES string.

On to `N#Cc1cccc(-c2c[nH]c3ncnc(N4CCOCC4)c23)c1`, for which the % of inhibition in test [1] is 15%.

In test [2], `O=C(NOC[C@H](O)CO)c1ccc(F)c(F)c1Nc1ccc(I)cc1F` showed a % of control of 97%. On to `CC[C@@H]1[C@H](F)C(=O)N[C@@H]1COc1nccc2cc(C(N)=O)c(OC)cc12` [ZIMLOVISERTIB], for which the % of inhibition was 10.2% in test [3] and -0.209% in test [4]. For the molecule `CCC(=O)N1CCN(c2ccc(-n3c(=O)ccc4cnc5ccc(-c6cnc7ccccc7c6)cc5c43)cc2C(F)(F)F)CC1`, the results for the % of control in test [5] and in test [6] were 100% and 5.8%, respectively.
